According to PubChem BioAssay AID588667 (The Scripps Research Institute Molecular Screening Center, 2011):

Biological target: Epidermal growth factor receptor (Homo sapiens) (UniProt P00533)
Assay: total EGFR protein level reduction, late-stage follow-up, counter-screen for KLF5 inhibitor project, SW620 cells, chemiluminescent western blot, powder samples (AID 588667)
Settings: 24 h, at 10 µM; for inhibition: stronger effect = higher value; for signed fold change of EGFR band vs DMSO (negative = fold decrease; more negative = more active): measured here: EGFR band fold change vs DMSO

Epidermal growth factor receptor (Homo sapiens), sequence (P00533 whole entry, looked up): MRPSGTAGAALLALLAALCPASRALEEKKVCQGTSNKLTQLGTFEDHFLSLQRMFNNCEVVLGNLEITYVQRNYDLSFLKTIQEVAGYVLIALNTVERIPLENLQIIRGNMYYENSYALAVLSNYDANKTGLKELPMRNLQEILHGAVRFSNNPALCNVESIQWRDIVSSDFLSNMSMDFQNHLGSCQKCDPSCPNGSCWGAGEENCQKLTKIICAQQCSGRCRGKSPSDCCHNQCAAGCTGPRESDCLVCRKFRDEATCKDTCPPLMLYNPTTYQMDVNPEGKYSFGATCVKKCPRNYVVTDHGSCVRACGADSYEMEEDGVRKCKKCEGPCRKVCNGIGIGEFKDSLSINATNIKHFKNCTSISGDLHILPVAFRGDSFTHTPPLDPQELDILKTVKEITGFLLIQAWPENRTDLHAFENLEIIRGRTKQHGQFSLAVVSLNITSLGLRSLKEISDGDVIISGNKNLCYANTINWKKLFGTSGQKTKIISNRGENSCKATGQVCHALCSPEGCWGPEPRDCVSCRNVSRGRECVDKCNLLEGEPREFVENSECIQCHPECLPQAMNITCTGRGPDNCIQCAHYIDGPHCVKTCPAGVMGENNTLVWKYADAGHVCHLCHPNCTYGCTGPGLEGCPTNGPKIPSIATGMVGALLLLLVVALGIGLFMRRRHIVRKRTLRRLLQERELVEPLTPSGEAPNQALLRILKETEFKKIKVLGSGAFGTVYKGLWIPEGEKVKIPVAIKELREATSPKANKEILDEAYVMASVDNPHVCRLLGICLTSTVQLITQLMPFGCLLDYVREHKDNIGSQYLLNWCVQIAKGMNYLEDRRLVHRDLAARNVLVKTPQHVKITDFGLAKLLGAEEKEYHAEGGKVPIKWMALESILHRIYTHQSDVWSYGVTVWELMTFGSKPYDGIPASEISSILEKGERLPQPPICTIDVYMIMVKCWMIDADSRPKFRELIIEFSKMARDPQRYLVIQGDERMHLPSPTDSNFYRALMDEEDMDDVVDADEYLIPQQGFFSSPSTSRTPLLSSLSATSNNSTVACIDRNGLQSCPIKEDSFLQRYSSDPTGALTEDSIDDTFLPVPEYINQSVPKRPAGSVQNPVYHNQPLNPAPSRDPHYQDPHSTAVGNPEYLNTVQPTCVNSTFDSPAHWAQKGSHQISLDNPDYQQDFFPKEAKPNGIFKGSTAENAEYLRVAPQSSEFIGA

inhibition [%] | Structure (SMILES) | signed fold change of EGFR band vs DMSO (negative = fold decrease; more negative = more active)
87.1 | CN(C(=O)CNC(=O)/C=C/c1cccc(Cl)c1)C1CCS(=O)(=O)CC1 | -7.78
53.3 | CN(C(=O)COC(=O)/C=C/c1cccc([N+](=O)[O-])c1)C1CCS(=O)(=O)C1 (stereo unspecified) | -2.14
31.7 | CN(C(=O)CNC(=O)/C=C/c1cccc(Cl)c1)C1CCS(=O)(=O)C1 (stereo unspecified) | -1.46
